Experimental data published in patent US8211912B2, “Compositions and methods for effecting NAD+ levels using a nicotinamide phosphoribosyl tranferase inhibitor” (Gemin X Pharmaceuticals Canada, priority 2007, dated 2012).
“And” between values parts separate entries of the source, which are not always exact repeats. Equal values may be shown once.

How the values were obtained:
HCT-116 (Colon) = experiment: Cell viability assay (72 h, ViaLight, relative ATP levels); format: cell-based
Protocol: (§1) IC50 value for the compound was determined in IM-9 and HCT-116 cells by ViaLight essay as described supra.

[1] = test system: HeLa cells transfected with pcFLAG-PNC1; experiment: Compound 1 cytotoxicity in cells overexpressing yeast PNC1, ViaLight 72 h; conditions: pcFLAG-PNC1 vs pcDNA3, 72 h ViaLight
Protocol: Viability was measured after 72 hours by ViaLight assay. […] Each point represents the mean and error bars the SD of triplicate samples. […] The concentration of nicotinamide in RPMI 1640 media was […]. HeLa cells were transiently transfected with vector (pcDNA3) or a plasmid expressing a flag-tagged yeast PNC1 gene (pcFLAG-PNC1). […] Relative viability was assessed after 72 hours by ViaLight assay.

[2] = test system: DMS-114 human small cell lung carcinoma cells; experiment: Sensitization to DNA damaging chemotherapeutic agents, relative ATP viability, 3 days; format: cell-based; conditions: 0.75 nM Compound 1 alone, 3 days; one value per experiment series (row agent); 0.00075 µM
Protocol: Cells were plated in logarithmic growth phase at 500-20,000 cells per well in 96-well clear bottom plates (Corning; Corning, N.Y.) and cultured for 14 to 16 hours prior to the start of drug treatment. Serial dilutions of Compound 2 and Compound 1 were made in DMSO, diluted 1:50 in RPMI-1640 (Hyclone; Logan, Utah) and then added to tissue culture media at a final concentration of 0.2% DMSO. […] Relative ATP levels were determined by the bioluminescent measuring of cellular ATP levels in each culture well with the ViaLight-HS High Sensitivity Cytotoxicity and Cell Proliferation BioAssay Kit (Cambrex Bioproducts, Cat. No. LT07-311; Charles City, Iowa) according to manufacturer's instructions. Briefly, a cell permeabilizing reagent was added to each culture well in media at the time of viability determination, allowing free ATP to be released from viable cells in the culture. Addition of luciferase to the mixture catalyzes the release of light proportional to the amount of free ATP present, which can then be quantified in a Centro LB 960 luminometer (EG&G Berthold; Oak Ridge, Tenn.); the level of ATP is generally directly proportional to the viability of the cells.
Sigmoidal dose response curves were then generated using non-linear regression analysis of variable slope by Prism Version 4.00 for Windows (GraphPad Software, Inc.; San Diego, Calif.) and IC50 values calculated.
The IC50 values for the treatment with the DNA damaging agent were calculated relative to control cells that were treated with DMSO only.

[3] = test system: FaDu cells (human hypopharyngeal squamous cancer); experiment: Clonogenic survival with radiation therapy; format: cell-based; conditions: Compound 1 10 nM for 24 hours prior to 0-10 Gy
Protocol: FaDu cells (human hypopharyngeal squamous cancer) were obtained from American Type Culture Collection (Manassas, Va.) and cultured according to specifications. FaDu cells were seeded in 96-well plates at densities of 5,000 per well and incubated overnight at 37° C. to allow for cell attachment.
Cells were irradiated at room temperature using a ^137Cs unit (Gamma-cell 40 Extractor; Nordion International, Inc.; Ontario, Canada) at a dose rate of about 1.1 Gy/min. The cells were then administered 0, 2, 4, 6, 8, or 10 Gy of radiation. About 48 hours after radiation therapy, the drug-containing medium was replaced with fresh growth medium and the plates were incubated at 37° C. Nine days after seeding, colonies were fixed in 70% ethanol, stained with 10% methylene blue, and colonies of ≧50 cells were counted. The surviving fraction was determined as the ratio of the number of colonies in the treated sample to that of the non-treated control sample. Eight wells were set up for each condition and the experiment was performed three times and all data are reported as mean±SE.
Thus, Compound 1 sensitizes the head and neck squamous tumor forming cells to radiation therapy.

[4] = test system: NAD^+ synthesis in HeLa cells and HeLa cell extracts; experiment: Conversion of ^14C nicotinamide or ^14C nicotinic acid to ^14C-labeled NAD^+ (TLC); conditions: Compound 1 20 nM
Protocol: In vivo: HeLa cells (1×10^6 per sample) were plated 14-16 hours prior to the start of drug treatment. […] Cells were harvested by trypsinization and collected by centrifugation, and cell pellets resuspended in 50 μl of 10 mM NaH2PO4. To extract the radiolabeled nucleotide metabolites, the cells were lysed by 6 freeze-thaw cycles of liquid nitrogen/37° C. water bath. Precipitates were removed by centrifugation at 13,000 g for 20 mins.
In vitro: Untreated HeLa cells were harvested by trypsinization, collected by centrifugation and resuspended at 2.5×10^7 cells/mL in 10 mM NaH2PO4 buffer then cell extracts were made by 6 freeze-thaw cycles as above and cell extracts clarified by centrifugation at 23,000 g at 4° C. for 90 mins. […] The reaction was terminated by incubation at 100° C. for 2 mins. The radiolabeled nucleotides were separated by thin-layer chromatography and identified by comparison with radiolabeled standards of NAD^+, its precursors and metabolites (Moravek Biochemicals; Brea, Calif.). Approximately 10 μL of each sample was spotted onto Silica gel 60 plates (Merck KGaA, EMD chemicals Inc; Gibbstown, N.J.) and resolved in a solvent of isobutyric acid: ammonium hydroxide:water (66:1:33) overnight. The dried TLC plates were then exposed to BAS-MS screens (Fuji Photo Film Co. LTD; Kanagawa, Japan) for 2-3 days, scanned on a Typhoon Imager (Amersham; Piscataway, N.J.). […]

IM-9 (Multiple myeloma) = experiment: Cell viability assay (72 h, ViaLight, relative ATP levels); format: cell-based, human
Protocol: as §1

human NMPRT = human NMPRT (Homo sapiens, UniProt P43490); experiment: Recombinant NMPRT coupled-enzyme fluorescence assay; format: biochemical; parameters: made in house; host or cells: E. coli BL21(DE3)pLysS; conditions: two independent experiments; Cheng-Prusoff; His-Flag tagged recombinant NMPRT
human NMPRT, sequence (P43490 whole entry): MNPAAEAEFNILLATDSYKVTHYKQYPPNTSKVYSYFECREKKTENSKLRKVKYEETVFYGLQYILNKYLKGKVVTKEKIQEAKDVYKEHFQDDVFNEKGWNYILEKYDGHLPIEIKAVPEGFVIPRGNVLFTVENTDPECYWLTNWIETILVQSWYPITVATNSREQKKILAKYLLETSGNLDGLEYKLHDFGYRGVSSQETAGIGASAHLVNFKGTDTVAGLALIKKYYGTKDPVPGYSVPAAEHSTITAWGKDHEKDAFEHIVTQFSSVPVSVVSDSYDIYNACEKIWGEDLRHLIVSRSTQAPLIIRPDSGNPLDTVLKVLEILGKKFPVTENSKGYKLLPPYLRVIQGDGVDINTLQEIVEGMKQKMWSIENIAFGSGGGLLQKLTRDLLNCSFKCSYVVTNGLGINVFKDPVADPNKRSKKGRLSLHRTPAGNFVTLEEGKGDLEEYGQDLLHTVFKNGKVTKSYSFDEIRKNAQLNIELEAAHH
Protocol: Human NMPRT cDNA (Origene; Rockville, Md.) was cloned into the pET151 vector (Invitrogen; Carlsbad, Calif.). The resulting construct encodes a recombinant NMPRT protein with hexahistidine and FLAG epitope tags at the NH2-terminus. Four liters of BL21(DE3)pLysS bacteria (Invitrogen; Carlsbad, Calif.) at O.D. ˜0.6 in LB media were induced to express the NMPRT protein with 200 μM IPTG (Roche Diagnostics; Mannheim, Germany) for 3.5 hours with shaking (250 rpm) at 37° C. The bacterial cells were harvested by centrifugation at 6,000 g for 15 minutes at 4° C., the supernatant was discarded and the cells frozen at −20° C. […] The protein concentration was determined by Bradford assay (Bio-Rad; Hercules, Calif.).
The activity of recombinant NMPRT was assessed using a coupled-enzyme fluorescence assay based on the quantitation of NAD^+. […] Fluorescence was measured using a Tecan Safire plate reader (Tecan-US; Durham, N.C.) with an excitation wavelength of 560 nm and emission wavelength of 590 nm. The Km for nicotinamide was determined for every preparation of the enzyme and a titration of NAD^+ was run with every assay to ensure that measurements were within the linear range. […] The Ki was calculated using Prism version 4.0 (Graphpad Software, Inc; San Diego, Calif.) and the Cheng-Prusoff Equation. […]
as §1

Substance: 4-[N′-cyano-N″-(6-(4-chlorophenoxy)-hexyl)-N-guanidino]-pyridine [Compound 1]
- IC50 (HCT-116 (Colon)): 2.3 ± 0.64 nM
- Effect of yeast PNC1 overexpression on Compound 1 cytotoxicity [1]: rescued
- Percent viability of DMS-114 cells, 0.75 nM Compound 1 (no DNA damaging chemotherapeutic agent) [2]: 47.7 ± 12% and 61.9 ± 16% and 57.9% and 53.20 ± 9.1%
- Survival of FaDu cells with radiation therapy [3]: reduces survival of FaDu cells compared to radiation therapy alone
- NAD^+ synthesis from nicotinamide ([4]; ^14C nicotinamide): blocks
- NAD^+ synthesis from nicotinic acid ([4]; ^14C nicotinic acid): not
- IC50 (IM-9 (Multiple myeloma)): 3.33 ± 0.66 nM
- Ki (human NMPRT): 1 nM
